Values quoted from earlier work, collected in patent US9399756B2, “Functionalized fullerenes as a biomass stimulant and a life extension agent” (UNIVERSITY OF FLORIDA RESEARCH FOUNDATION, INC., priority 2010, dated 2016).

Assays:
[1] = tested on: mice; details: injected; Zhou et al. 2009
[2] = tested on: mice; details: Quick et al., Neurobiology of Aging 2008

Row | Substance | hair growth in mice [1] | lifespan of mice [2]
1 | (H23C11CO2)2CC60C(CO2CH2CO2H)2 | may stimulate hair growth in mice | 
2 | e,e,e-C60(C(CO2H)2)3 |  | may extend the lifespan of mice
